Assay [1] addresses T1, Sm.TRPMPZQ (Schistosoma mansoni, UniProt A0A5K4F0X5). To be noted: human TRPM8 agonists; cited from earlier work.
In another assay the test system is endogenous receptors. To be noted: confocal Ca2+ imaging; cited from earlier work.
Assay [2] concerns untransfected HEK293 cells. The assay is described as follows: Counterscreen, agonist mode, Ca2+ signal in untransfected HEK cells. The assay is classed as cell-based. To be noted: S3 Table, counterscreen titration; for EC50: unit inferred, read-out: HEK AG Final EC50. The protocol:
(§1) HEK cells were transfected with cDNA (400μg/ml DNA) encoding Sm.TRPMPZQ using a Maxcyte STX electroporation system and incubated overnight at 37°C. This system is uniquely capabable of large scale transfections providing one batch of cells ready for large scale HTS [30]. Briefly, the HEK cells were resuspended at 10^8/ml in Maxcyte electroporation buffer. Plasmid DNA was added to the cells in buffer to achieve a concentration of 400 μg/ml from a stock of 5mg/ml (in TE buffer). This mixture was loaded into the appropriate cassette, inserted into the machine, and cells electroporated. Cells were then frozen to provide a single supply of transfected cells for all subsequent assays. On the day of the assays, cells were thawed in a 37°C waterbath, and resuspended in DMEM + 10% FBS and counted. The cells were pelleted by centrifugation at 170xg for 5 minutes. The media was aspirated, and the remaining pellet was resuspended in 1x HBSS with 20 mM HEPES and 1% DMSO to achieve 1.33x10^6cells/ml. This cell suspension was then dispensed at 3 μl/well to the 1536 well plates (Greiner Bio One part 789072) at a density of 4,000 cells/well. Measurements of fluorescence intensity (λex = 470 nm, λem = 535 nm) were made using a FLIPR (Molecular Devices FLIPR Tetra). A read of basal fluorescence values was made (5s) prior to addition of compounds or controls (30 nl). In both ‘agonist’ and ‘antagonist mode’, the total assay volume was 6μl (1% DMSO). […] Ligand performance was categorized using an algorithm based on the activity of the entire dataset to define a ‘hit-cutoff’ parameter for both agonist-mode and antagonist-mode screening. Any compound with greater percent activation than this cutoff was assigned as ‘active’ prior to titration and counter-screening. Titration assays were executed using the same reagents, protocols and detection systems, done as 10-point concentration-response curves, performed in triplicate. Counter-screening was performed using untransfected HEK293 cells for comparison with results testing the same compounds effect on cells expressing Sm.TRPMPZQ, with ATP used as the positive control. For each compound, activity was plotted against compound concentration and data were fitted with a sigmoidal function. In order to be considered a hit at this stage a compound must achieve a EC50<5 μM for agonists and IC50 <5 μM for antagonists. All compounds selected for titration were subjected to LC-MS analysis to confirm mass and sample purity. ChemAxon (https://www.chemaxon.com) academic licensing was provided for the use of Instant JChem (ver. 15.10.12.0) to perform compound mining of the libraries utilized in this effort.
A general note: Counterscreens check selectivity or assay interference.

For assay [3], the system named is untransfected HEK293 cells. Put plainly: Counterscreen, antagonist mode, Ca2+ signal in untransfected HEK cells. The format is cell-based. To be noted: S3 Table, counterscreen titration. The protocol: as §1
For assay [4], the target named is T1, Sm.TRPMPZQ. Put plainly: cell-based. The following applies: S3 Table, titration. The protocol:
as §1, with “Any compound with greater percent activation than this cutoff was assigned as ‘active’ prior to titration and counter-screening.” left out, “In order to be considered a hit at this stage a compound must achieve a EC50<5 μM for agonists and IC50 <5 μM for antagonists. All compounds selected for titration were subjected to LC-MS analysis to confirm mass and sample purity.” left out

In assay [5] the target is T1, Sm.TRPMPZQ. Put plainly: cell-based. To be noted: S3 Table, titration. The protocol: as §1, with “This cell suspension was then dispensed at 3 μl/well to the 1536 well plates (Greiner Bio One part 789072) at a density of 4,000 cells/well. Measurements of fluorescence intensity (λex = 470 nm, λem = 535 nm) were made using a FLIPR (Molecular Devices FLIPR Tetra).” left out, “Any compound with greater percent activation than this cutoff was assigned as ‘active’ prior to titration and counter-screening.” left out, “function.” for “function. In order to be considered a hit at this stage a compound must achieve a EC50<5 μM for agonists and IC50 <5 μM for antagonists. All compounds selected for titration were subjected to LC-MS analysis to confirm mass and sample purity. ChemAxon (https://www.chemaxon.com) academic licensing was provided for the use of Instant JChem (ver. 15.10.12.0) to perform compound mining of the libraries utilized in this effort.”
The source holds these as a separate data set.

T1 sequence (A0A5K4F0X5 entry or part of it): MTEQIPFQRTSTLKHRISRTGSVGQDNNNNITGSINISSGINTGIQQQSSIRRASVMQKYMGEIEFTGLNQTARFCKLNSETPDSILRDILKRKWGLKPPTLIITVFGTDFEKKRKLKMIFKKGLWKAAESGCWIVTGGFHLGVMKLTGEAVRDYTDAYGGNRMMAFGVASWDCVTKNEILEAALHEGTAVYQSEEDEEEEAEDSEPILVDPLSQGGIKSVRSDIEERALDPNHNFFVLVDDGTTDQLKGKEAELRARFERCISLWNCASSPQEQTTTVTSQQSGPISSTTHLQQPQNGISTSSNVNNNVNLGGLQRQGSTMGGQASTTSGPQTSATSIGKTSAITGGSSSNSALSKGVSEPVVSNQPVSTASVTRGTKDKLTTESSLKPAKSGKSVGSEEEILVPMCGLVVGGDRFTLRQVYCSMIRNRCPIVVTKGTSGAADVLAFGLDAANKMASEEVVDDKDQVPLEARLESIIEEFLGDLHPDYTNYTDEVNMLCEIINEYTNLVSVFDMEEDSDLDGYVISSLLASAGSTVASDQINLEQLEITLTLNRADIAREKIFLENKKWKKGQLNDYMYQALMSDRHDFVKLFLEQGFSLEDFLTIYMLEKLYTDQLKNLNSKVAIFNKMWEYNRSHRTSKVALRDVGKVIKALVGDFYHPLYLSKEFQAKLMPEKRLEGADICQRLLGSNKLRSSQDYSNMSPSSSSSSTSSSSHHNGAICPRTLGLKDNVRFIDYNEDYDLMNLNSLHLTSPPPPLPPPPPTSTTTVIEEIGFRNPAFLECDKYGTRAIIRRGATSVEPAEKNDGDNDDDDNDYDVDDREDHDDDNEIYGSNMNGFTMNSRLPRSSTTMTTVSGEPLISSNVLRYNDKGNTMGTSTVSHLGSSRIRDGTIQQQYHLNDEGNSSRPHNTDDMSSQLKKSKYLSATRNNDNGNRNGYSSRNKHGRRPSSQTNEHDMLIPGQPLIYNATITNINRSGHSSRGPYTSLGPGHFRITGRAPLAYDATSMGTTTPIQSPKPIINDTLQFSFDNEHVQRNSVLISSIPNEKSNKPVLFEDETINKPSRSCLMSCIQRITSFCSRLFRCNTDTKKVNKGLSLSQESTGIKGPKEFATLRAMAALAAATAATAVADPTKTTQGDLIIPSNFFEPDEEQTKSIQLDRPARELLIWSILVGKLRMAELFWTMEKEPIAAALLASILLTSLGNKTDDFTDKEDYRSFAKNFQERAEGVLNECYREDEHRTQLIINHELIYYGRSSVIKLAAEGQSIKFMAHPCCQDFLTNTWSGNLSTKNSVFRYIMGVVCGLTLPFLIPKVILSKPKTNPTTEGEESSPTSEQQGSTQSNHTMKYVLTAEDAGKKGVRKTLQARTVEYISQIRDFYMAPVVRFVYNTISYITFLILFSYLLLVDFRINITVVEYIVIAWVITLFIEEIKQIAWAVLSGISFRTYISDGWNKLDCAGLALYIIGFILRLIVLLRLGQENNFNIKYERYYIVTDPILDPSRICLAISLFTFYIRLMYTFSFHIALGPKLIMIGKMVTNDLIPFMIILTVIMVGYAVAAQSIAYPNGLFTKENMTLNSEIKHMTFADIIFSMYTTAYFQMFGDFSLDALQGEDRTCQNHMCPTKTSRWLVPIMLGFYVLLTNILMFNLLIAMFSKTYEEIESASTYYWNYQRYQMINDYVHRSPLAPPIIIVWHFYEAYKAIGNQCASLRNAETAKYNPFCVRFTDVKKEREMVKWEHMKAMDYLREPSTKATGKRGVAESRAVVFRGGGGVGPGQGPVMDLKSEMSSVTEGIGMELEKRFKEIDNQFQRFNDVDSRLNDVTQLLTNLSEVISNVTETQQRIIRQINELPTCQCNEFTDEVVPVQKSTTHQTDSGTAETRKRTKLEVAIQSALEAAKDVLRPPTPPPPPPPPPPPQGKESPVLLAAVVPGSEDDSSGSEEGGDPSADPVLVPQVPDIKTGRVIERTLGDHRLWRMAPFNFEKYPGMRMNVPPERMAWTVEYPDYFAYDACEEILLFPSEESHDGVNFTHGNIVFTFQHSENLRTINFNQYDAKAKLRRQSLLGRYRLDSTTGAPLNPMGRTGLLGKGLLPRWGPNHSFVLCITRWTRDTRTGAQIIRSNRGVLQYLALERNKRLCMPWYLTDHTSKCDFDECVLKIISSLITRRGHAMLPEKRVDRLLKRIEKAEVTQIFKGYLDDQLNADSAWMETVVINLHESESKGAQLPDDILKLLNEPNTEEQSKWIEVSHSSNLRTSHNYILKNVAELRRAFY

On to `O=C1NC(c2cccc([N+](=O)[O-])c2)=CCN1c1ccccc1O` [icilin], for which the “activation of Sm.TRPMPZQ” value at Sm.TRPMPZQ [1] is “not activated”.
For `Nc1ncnc2c1ncn2[C@@H]1O[C@H](COP(=O)(O)OP(=O)(O)OP(=O)(O)O)[C@@H](O)[C@H]1O` [ATP], the “ΔF/F, amplitude of Ca2+ transient” value in the assay on endogenous receptors is recorded as 4.5±1.5.
As a reminder, the EC50 is the midpoint of the concentration-response curve. With `Cc1cc(C)n(-c2ccc(-n3cccc3/C=C(/C#N)S(=O)(=O)c3ccccc3)cc2)n1` [SR-02000000290-3], in assay [2], the “HEK AG Averaged Max % Response” value is 13.2678% and the EC50 is above 12.4 µM. The “HEK ANT Averaged Max % Response” value in assay [3] was found to be 37.5091%. The “Sm.TRPMPZQ AG Averaged Max % Response” value at Sm.TRPMPZQ [4] amounted to 6.499%. Moreover, the “Sm.TRPMPZQ ANT Averaged Max % Response” value on Sm.TRPMPZQ [5] is 71.9269%.
For the compound `CC1CCC(C(C)C)C(O)C1` (stereo not shown) [menthol], the “activation of Sm.TRPMPZQ” value on Sm.TRPMPZQ [1] is “not activated”.
As to `FC(F)(F)c1ccc2c(c1)nc(SCc1ccccc1)n2CCc1ccccc1` [SR-07000003001-2], in assay [2], the “HEK AG Averaged Max % Response” value was found to be 8.753% and the EC50 was above 12.4 µM. Moreover, the “HEK ANT Averaged Max % Response” value in assay [3] came to 21.2984%. Also, the “Sm.TRPMPZQ AG Averaged Max % Response” value at Sm.TRPMPZQ [4] was found to be 3.104%. Further, the “Sm.TRPMPZQ ANT Averaged Max % Response” value on Sm.TRPMPZQ [5] is on record as 61.2456%.
